Data as given in patent publication US20060270591A1, “Androgen receptor coregulators” (priority 2002, published 2006).

Assays:
[1] = tested on: p27^KIP1; assay: Western blot of p27KIP1 in PC-3(AR2) cells; assay type: cell-based, human; settings: 10 nM DHT
Protocol: 41. […] (A) C2C12, COS-1, DU145 and PC-3 cell lines were co-transfected with 30 ng pSG5-AR, 0.5 μg MMTV-Luc, 1 ng pRL-SV40, various amounts of pSG5-bSV as indicated, and adjusted to total amount of 2 μg DNA with pSG5. The assay method was the same as FIG. 2. After measuring the luciferase activity, values relative to lane 1 were calculated. Results are the mean±S.D. of three independent experiments. (B) PC-3 was co-transfected with 30 ng pSG5-AR, 1.5 μg pSG5-bSV, 1 ng pRL-SV40, and 0.5 μg reporter gene as indicated by using SuperFect. […] (C) PC-3(AR2) cell line was transfected with EGFP or EGFP-bSV expressing vector using SuperFect. […] Proteins extracted from cells were loaded on 15% SDS-PAGE and analyzed by western blotting. The intensity of each p27 band was quantified and normalized with control protein which is a non-specific band pick up by the antibody in the same blot. The relative intensities to lane 1 were calculated.
478. Protein samples extracted from the cell were separated on 15% SDS-PAGE and transferred to nitrocellulose membranes. Membranes were incubated 1 h with 5% non-fat milk in TBST at room temperature, followed by the antibodies against p27^(KIP1) (Santa Cruz), followed by AP conjugated goat-antimouse antibody. Blots were developed using the AP developing reagent from Bio-Rad. Band intensity was quantitated by Collage® image analysis software (Fotodyne Inc.).

[2] = tested on: LNCaP cell; settings: 10 nM DHT; cited from earlier work
[3] = tested on: ARA70 and AR; settings: LNCaP cells; cited from earlier work
[4] = tested on: AR; assay: AR reporter gene assay with gelsolin (Example 5); assay type: cell-based, human; settings: for effect on gelsolin enhanced AR activity: PC-3 cells, co-transfected flag-AR peptides
Source text: 468. A C-terminal fragment of gelsolin (aa 281-731) was isolated from pACT2 encoding gelsolin, and inserted into pSG5-Gal4 DNA-binding domain (DBD) (constructed by Dr. R. Nakao). AR fragment (aa 36-918) was inserted into pCMX-VP16 (a gift from Dr. D. Chen). For gelsolin expression vector, a full-length cDNA fragment of gelsolin from LKCG, a gift from Dr. D. Kwiatkowski (Northwestern University, Evanston, Ill.), was inserted into pSG5. Dr. M. L. Lu (Harvard Medical School, Boston, Mass.) provided the p (ARE) 4-luciferase (LUC) plasmid. Dr. A. Mizokami (University of Kanazawa, Kanazawa, Japan) provided the pGL3-PSA6.0LUC plasmid. The expression plasmids of AR peptides were constructed by inserting the PCR amplified cDNA fragment of AR DBD into pFlag-CMV (Sigma) and the fragments of AR LBD into pCDNA-flag plasmid. Transfection protocol and reporter gene assay were described in previous report (Ting et al. Proc Natl Acad Sci USA 99, 661-666 (2002)).
Target sequence in this assay (P10275 with tags, fused parts or gaps DEL79-80/DUP473-473): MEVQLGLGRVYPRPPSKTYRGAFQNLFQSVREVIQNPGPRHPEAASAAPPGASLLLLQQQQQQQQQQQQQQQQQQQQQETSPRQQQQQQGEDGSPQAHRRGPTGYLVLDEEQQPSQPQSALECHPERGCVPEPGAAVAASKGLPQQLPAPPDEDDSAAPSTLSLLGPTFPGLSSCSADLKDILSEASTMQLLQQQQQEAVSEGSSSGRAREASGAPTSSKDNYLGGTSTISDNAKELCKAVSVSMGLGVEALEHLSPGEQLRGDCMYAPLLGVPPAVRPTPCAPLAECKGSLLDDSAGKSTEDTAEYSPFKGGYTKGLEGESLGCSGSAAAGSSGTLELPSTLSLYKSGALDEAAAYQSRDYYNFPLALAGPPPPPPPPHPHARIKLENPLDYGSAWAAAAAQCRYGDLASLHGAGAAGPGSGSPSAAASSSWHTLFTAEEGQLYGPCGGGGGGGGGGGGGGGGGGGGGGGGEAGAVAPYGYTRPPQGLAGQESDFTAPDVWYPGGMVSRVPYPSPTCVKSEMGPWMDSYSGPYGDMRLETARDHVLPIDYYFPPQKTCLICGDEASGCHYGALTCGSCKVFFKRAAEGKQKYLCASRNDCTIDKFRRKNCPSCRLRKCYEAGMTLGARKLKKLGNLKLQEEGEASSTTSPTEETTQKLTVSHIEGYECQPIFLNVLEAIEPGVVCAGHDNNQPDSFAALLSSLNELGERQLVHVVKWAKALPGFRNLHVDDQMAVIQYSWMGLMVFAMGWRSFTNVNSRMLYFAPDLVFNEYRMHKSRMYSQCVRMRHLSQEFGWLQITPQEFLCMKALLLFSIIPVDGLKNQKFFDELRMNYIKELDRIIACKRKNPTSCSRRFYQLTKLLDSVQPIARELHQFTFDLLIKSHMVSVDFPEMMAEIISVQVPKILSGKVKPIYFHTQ

[5] = molecular target: T1, AR N-terminus and AR C-terminus (Homo sapiens, UniProt P10275); assay: Mammalian two-hybrid assay of AR N-C interaction in PC-3 cells; assay type: cell-based; settings: DHT
T1 construct: AR DBD plus LBD (GST-AR-DL); expressed in transfected cells; host or cells: PC-3 cells (human prostate cancer line)
T1 sequence (P10275 555-920 limits assumed): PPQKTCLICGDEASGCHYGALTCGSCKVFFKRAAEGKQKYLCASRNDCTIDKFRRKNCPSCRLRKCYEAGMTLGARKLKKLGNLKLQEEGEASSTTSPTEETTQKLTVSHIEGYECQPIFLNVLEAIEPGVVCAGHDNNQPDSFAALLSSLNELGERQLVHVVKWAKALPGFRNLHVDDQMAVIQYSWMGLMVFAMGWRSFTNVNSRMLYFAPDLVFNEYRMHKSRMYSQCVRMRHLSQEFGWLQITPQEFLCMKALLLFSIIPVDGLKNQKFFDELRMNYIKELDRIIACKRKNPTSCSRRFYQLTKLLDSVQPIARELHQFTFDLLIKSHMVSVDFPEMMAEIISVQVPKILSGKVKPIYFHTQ
T1 sequence (P10275 1-559 partner limits assumed): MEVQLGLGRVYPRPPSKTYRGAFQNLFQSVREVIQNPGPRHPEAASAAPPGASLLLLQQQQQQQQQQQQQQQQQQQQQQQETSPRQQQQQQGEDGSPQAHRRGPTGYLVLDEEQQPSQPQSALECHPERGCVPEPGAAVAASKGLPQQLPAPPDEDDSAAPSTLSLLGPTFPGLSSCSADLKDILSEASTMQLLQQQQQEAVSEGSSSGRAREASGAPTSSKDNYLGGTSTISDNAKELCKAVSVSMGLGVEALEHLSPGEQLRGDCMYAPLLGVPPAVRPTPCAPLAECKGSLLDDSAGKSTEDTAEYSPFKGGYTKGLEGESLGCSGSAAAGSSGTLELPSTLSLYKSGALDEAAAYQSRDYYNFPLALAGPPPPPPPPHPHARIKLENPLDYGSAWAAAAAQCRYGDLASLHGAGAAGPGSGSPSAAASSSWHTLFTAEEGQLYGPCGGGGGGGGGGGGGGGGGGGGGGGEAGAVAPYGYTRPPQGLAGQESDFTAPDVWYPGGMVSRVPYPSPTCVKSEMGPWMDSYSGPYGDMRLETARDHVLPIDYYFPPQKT
Protocol: 44. […] PC-3 cells were transfected with 30 ng plasmids expressing Gal4(DBD)-AR-DL, VP16 or VP16-ARN combined with 1.5 μg pSG5, pSG5-bSV, -ARA55, or -SRC-1α as indicated. The reporter plasmid pG5-Luc (0.5 μg) and control plasmid pRL-Luc (1 ng) were transfected to every sample. The assay was carried out as described in FIG. 29C.
474. Mouse myoblast cell line (C2C12), human prostate cancer cell lines (PC-3 and DU145), and monkey kidney fibroblast cell line (COS-1) were maintained in Dulbecco's minimum essential medium (DMEM) containing penicillin (25 units/ml), streptomycin ([…]), and 10% fetal bovine serum (FBS). In mammalian two-hybrid assay, transfections were performed using the calcium phosphate precipitation method as described previously (15). Briefly, 1.5-3×10^5 cells were plated on 35-mm dishes for 24 h, and the medium was changed to DMEM containing 10% charcol-dextran stripped FBS (CD-FBS) 2 h before transfection. Cells were transfected with 0.5 μg plasmids expressing Gal4(DBD) and VP-16 fusion proteins as indicated. Gal4 response element controlled Firefly luciferase expression plasmid, pG5-Luc, was used as reporter gene. A Renilla luciferase expression plasmid pRL-SV40 was used as an internal control for transfection efficiency. The total amount of DNA was adjusted to 5 μg with pCMX-VP16 vectors. […]

[6] = tested on: AR; assay: AR transactivation assay, MMTV-CAT reporter, transient transfection (Example 1); assay type: cell-based, human; settings: PC3 cells; TGF-β 5 ng/ml
Protocol: Human prostate cancer DU145 or PC3 cells, or human lung carcinoma cells NCI H1299 were grown in Dulbecco's minimal essential medium (DMEM) containing penicillin (25 U/ml), streptomycin (25˜g/ml), and 5% fetal calf serum (FCS). One hour before transfection, the medium was changed to DMEM with 5% charcoal-stripped FCS. […] A β-galactosidase expression plasmid, pCMV-β-gal, was used as an internal control for transfection efficiency.
The medium was changed 24 hr posttransfection and the cells treated with either steroid hormones or hydroxyflutamide, and cultured for an additional 24 hr. Cells were harvested and assayed for CAT activity after the cell lysates were normalized by using β-galactosidaseas an internal control. Chloramphenicol acetyltransferase (CA) activity was visualized by PhosphorImager (Molecular Dynamics) and quantitated by ImageQuant software (Molecular Dynamics).
Target sequence in this assay (P10275 whole entry, the tested form may be a part): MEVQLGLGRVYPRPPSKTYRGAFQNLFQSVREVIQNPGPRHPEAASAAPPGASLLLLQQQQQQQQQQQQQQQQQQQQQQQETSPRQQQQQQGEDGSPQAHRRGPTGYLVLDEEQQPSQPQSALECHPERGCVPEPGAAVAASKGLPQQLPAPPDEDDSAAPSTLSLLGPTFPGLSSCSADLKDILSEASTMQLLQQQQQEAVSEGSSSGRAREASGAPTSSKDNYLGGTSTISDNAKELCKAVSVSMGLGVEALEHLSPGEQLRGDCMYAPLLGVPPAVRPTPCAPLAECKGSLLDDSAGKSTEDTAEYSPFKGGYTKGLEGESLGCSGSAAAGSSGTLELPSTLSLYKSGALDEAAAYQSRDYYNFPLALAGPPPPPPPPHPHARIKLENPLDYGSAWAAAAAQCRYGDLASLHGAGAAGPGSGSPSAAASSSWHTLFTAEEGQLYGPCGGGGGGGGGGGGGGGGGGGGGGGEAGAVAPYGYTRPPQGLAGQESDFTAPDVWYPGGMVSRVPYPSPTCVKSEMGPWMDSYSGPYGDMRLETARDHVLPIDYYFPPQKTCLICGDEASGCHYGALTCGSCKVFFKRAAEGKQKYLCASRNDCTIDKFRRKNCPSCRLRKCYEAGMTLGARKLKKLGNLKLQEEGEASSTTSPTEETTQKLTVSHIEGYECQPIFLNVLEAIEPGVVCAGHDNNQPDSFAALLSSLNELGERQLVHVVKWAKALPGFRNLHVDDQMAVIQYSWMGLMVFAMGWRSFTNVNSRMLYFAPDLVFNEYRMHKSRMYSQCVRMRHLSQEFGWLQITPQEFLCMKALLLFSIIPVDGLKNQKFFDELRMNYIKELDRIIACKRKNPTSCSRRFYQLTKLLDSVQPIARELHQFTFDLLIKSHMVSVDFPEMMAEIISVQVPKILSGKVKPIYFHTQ

[7] = tested on: ARA55 mRNA; assay: Northern blot of ARA55 mRNA in PC3 cells; assay type: cell-based, human; settings: 5 ng/ml
Source text: 360. The total RNA (25˜g) was fractionated on a 1% formaldehyde-MOPS agarose gel, transferred onto a Hybond-N nylon membrane (Amersham) and prehybridized. A probe corresponding to the 900 bp C-terminus of ARA55 or an ARA54-specific sequence was 32P-labeled in vitro using Random Primed DNA Labeling Kit (Boehringer-Mannheim) according to the manufacture's protocol and hybridized overnight. After washing, the blot was exposed and quantified by Molecular Dynamics PhosphorImager. β-actin was used to monitor the amount of total RNA in each lane.

[8] = tested on: AR; assay: AR transactivation dual-luciferase assay with supervillin (Example 6); assay type: cell-based, human; settings: COS-1 cells; 10 nM DHT; MMTV-Luc
Protocol: In AR transactivation activity assays, transfections were performed using SuperFect (Qiagen, Chatsworth, Calif.) following protocols described in manual provided by Qiagen. Briefly, cells were plated on 35 mm dishes and after 24 h were transfected using the SuperFect kit. The total DNA amount was adjusted to 2 μg with pSG5 or pEGFP vectors. The medium was changed to DMEM with 10% CD-FBS 2 h after transfection. After 24 h, the DMEM with 10% CD-FBS was changed again, and the cells were treated with various steroids. Cells were harvested after 24 h for dual-luciferase assay as described in protocol provided by Promega. At least three independent experiments were carried out in each case.
Target sequence in this assay (P10275 with tags, fused parts or gaps DEL79-80/DUP473-473): as the sequence (P10275 with tags, fused parts or gaps DEL79-80/DUP473-473) above

For `C[C@]12CCC(=O)C[C@@H]1CC[C@@H]1[C@@H]2CC[C@]2(C)[C@@H](O)CC[C@@H]12` [DHT, 5α-dihydrotestosterone, reference compound], the “p27^(KIP1) protein expression” value [1] is given as “induced p27^(KIP1) protein expression” and the LNCaP cell apoptosis [2] is given as “promotes LNCaP cell apoptosis”.
In the case of `Oc1ccc(C=Cc2cc(O)cc(O)c2)cc1` [resveratrol], the “expression of ARA70 and AR transactivation” value [3] is given as “repress the expression of ARA70 and AR transactivation”.
For “D1: AR peptide D1 (aa 551-600) within AR DBD (DYYFPPQKTCLICGDEASGCHYGALTCGSCKVFFKRAAEGKQKYLCASRN; UniProt P10275 551-600, looked up, fragment)”, the “effect on gelsolin enhanced AR activity” value [4] was “suppressed gelsolin enhanced AR activity”.
In the case of “HI-2: AR peptide H1-2 (aa 655-695) within AR LBD (TTQKLTVSHIEGYECQPIFLNVLEAIEPGVVCAGHDNNQPD; left off: small tags and cut ends)”, the “effect on gelsolin enhanced AR activity” value [4] is reported as “suppressed gelsolin enhanced AR activity”.
In the case of “SRC-1: p160 steroid receptor coactivator-1”, the “effect on AR N-C interaction” value [5] is reported as “further enhance”.
In the case of TGF-β [reference compound], the “increase of AR transcription activity” value [6] is reported as 70% and the “induction of ARA55 mRNA” value [7] is reported as 2 fold.
In the case of “bSV(831-1281): peptide containing a.a. 831-1281 of bSV, conjugated with EGFP”, the “AR transactivation with EGFP-bSV construct” value [8] is reported as 248 fold.
In the case of “bSV(1010-1792): domain within SV (a.a. 1010-1792), conjugated with EGFP”, the “effect of EGFP-bSV construct on AR transactivation” value [8] is reported as “only a marginal effect”.
With “gelsolin: multifunction actin-binding protein, AR coregulator” the “inhibition of AR activity by HF with added gelsolin” value ([4]; 100 nM HF, normal 10% FCS medium) was 40%, the “enhancement of AR transcription activity” value ([4]; DU145 cells, 10 nM DHT) was 2-3 fold and the “effect on AR transcription activity” value ([4]; DU145 cells, absence of DHT) was “no significant effect”.
